± gives the standard deviation of the averaged measurements.
Tests used:
HS-PSS [1] = assay: drug sensitivity score (DSS, CellTiter-Glo viability, 72 h) (DSS (dimensionless)); higher = more sensitive; extreme values may be limits of the assay
How it was run: (§1)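 MPNST cell lines and primary human Schwann cells (750–1000 cells per well) went into 384-well plates preprinted with each compound at five concentrations in 10-fold steps. Plates were incubated 72 h at 37 °C, 5% CO2. Viability was read as CellTiter-Glo ATP luminescence, scaled between vehicle and positive-control wells, with duplicates averaged where present. Percent inhibition is at the top concentration; drug sensitivity score and relative IC50 (censored at top concentration) come from four-parameter logistic fits.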

[2] = system: HSC1 (primary human Schwann cells); assay: as above
How it was run: as §1

[3] = system: HSC2 (primary human Schwann cells); assay: as above
How it was run: as §1

S1507-2 [4] = assay: as above
How it was run: as §1

STS26T [5] = assay: as above
How it was run: as §1

HS-Sch-2 [6] = assay: as above
How it was run: as §1

YST-1 [7] = assay: as above
How it was run: as §1

ST8814 [8] = assay: as above
How it was run: as §1

S462 [9] = assay: as above
How it was run: as §1

HS-PSS [10] = assay: drug sensitivity score (DSS, CellTox-Green cytotoxicity, 72 h) (DSS (dimensionless)); higher = more cytotoxic; extreme values may be limits of the assay
How it was run: (§2)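 MPNST cell lines and primary human Schwann cells were incubated 72 h at 37 °C in 384-well plates holding five 10-fold compound dilutions. CellTox-Green was added before seeding at a final 1:1000 dilution and reported fluorescence from DNA released by disrupted cells. Signals were scaled to vehicle and positive-control wells, and cultures failing plate quality control were dropped. Drug sensitivity score and relative IC50 come from four-parameter logistic fits, with IC50 censored at the top concentration.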

[11] = system: HSC1 (primary human Schwann cells); assay: as above
How it was run: as §2

[12] = system: HSC2 (primary human Schwann cells); assay: as above
How it was run: as §2

S1507-2 [13] = assay: as above
How it was run: as §2

STS26T [14] = assay: as above
How it was run: as §2

ST8814 [15] = assay: as above
How it was run: as §2

HS-PSS [16] = assay: % inhibition of CellTiter-Glo viability at highest tested concentration (72 h), relative to DMSO and benzethonium chloride controls; higher = more inhibition
How it was run: as §1

[17] = system: HSC1 (primary human Schwann cells); assay: as above
How it was run: as §1

[18] = system: HSC2 (primary human Schwann cells); assay: as above
How it was run: as §1

S1507-2 [19] = assay: as above
How it was run: as §1

STS26T [20] = assay: as above
How it was run: as §1

HS-Sch-2 [21] = assay: as above
How it was run: as §1

YST-1 [22] = assay: as above
How it was run: as §1

ST8814 [23] = assay: as above
How it was run: as §1

S462 [24] = assay: as above
How it was run: as §1

Row | SMILES | drug sensitivity score (HS-PSS [1]) | drug sensitivity score [2] | drug sensitivity score [3] | drug sensitivity score (S1507-2 [4]) | drug sensitivity score (STS26T [5]) | drug sensitivity score (HS-Sch-2 [6]) | drug sensitivity score (YST-1 [7]) | drug sensitivity score (ST8814 [8]) | drug sensitivity score (S462 [9]) | drug sensitivity score (HS-PSS [10]) | drug sensitivity score [11] | drug sensitivity score [12] | drug sensitivity score (S1507-2 [13]) | drug sensitivity score (STS26T [14]) | drug sensitivity score (ST8814 [15]) | % inhibition (HS-PSS [16]) [%] | % inhibition [17] [%] | % inhibition [18] [%] | % inhibition (S1507-2 [19]) [%] | % inhibition (STS26T [20]) [%] | % inhibition (HS-Sch-2 [21]) [%] | % inhibition (YST-1 [22]) [%] | % inhibition (ST8814 [23]) [%] | % inhibition (S462 [24]) [%]
1 | Cc1ccc(C(=O)N(CCCN)[C@@H](c2oc3cc(Cl)ccc3c(=O)c2Cc2ccccc2)C(C)C)cc1 (max concentration tested 100 nM) | 6.42 | 0 | 0 | 0.0057 ± 0.0081 | 0 | 19 | 18.9 | 0 | 0 | 0 | 0 | 0 | 0 | 0 | 0 | 26.9 | 7.2 | -19.5 | 5.6 ± 6.5 | 2.24 | 87.1 | 76 | 5.16 | -2.08 ± 8.3
2 | CN1CCC(COc2cnc(-c3cccc(Cn4nc(-c5cccc(C#N)c5)ccc4=O)c3)nc2)CC1 (max concentration tested 1000 nM) | 0 | 0 | 0 | 7.535 ± 0.062 | 0.286 | 0 | 0 | 0 | 2.88 ± 4.1 | 0 | 0 | 0 | 0.27 ± 0.38 | 0.0133 | 0 | 2.35 | 6.94 | 8.76 | 28.3 ± 1.1 | 13.9 | 0.48 | 2.87 | 9.67 | 12.1 ± 1.4
3 | COc1ccc(-c2cc3c(C)nc(N)nc3n([C@H]3CC[C@H](OCCO)CC3)c2=O)cn1 (max concentration tested 10000 nM) | 11.7 | 18.3 | 16.7 | 22.5 ± 0.84 | 20.5 | 14.9 | 25.6 | 18.8 | 16.6 ± 2 | 0.29 | 2.35 | 2.71 | 6.9 ± 1.9 | 4.38 | 6.06 | 70.2 | 92.1 | 92 | 98.4 ± 1.9 | 92.3 | 97.5 | 101 | 99.7 | 86.96 ± 0.63
4 | C[C@@]1(C(=O)Nc2ccc(F)nc2)CCCN1c1nc(Nc2cc(C3CC3)n[nH]2)c2cccn2n1 (max concentration tested 10000 nM) | 7.91 | 14.5 | 16.2 | 14.5 ± 2.5 | 8.67 | 9.41 | 25.8 | 13.1 | 15.5 ± 0.72 | 3.23 | 7.13 | 9.9 | 9.5 ± 0.59 | 11.7 | 13 | 87.3 | 94.8 | 96.7 | 99.4 ± 1.5 | 64 | 89.1 | 74.3 | 93.2 | 92.1 ± 1.2
5 | N#Cc1ccc(COC[C@H]2O[C@@H](n3c(NCc4ccc(Cl)c(Cl)c4)nc4c(N)ncnc43)[C@H](O)[C@@H]2O)cc1 (max concentration tested 10000 nM) | 0.47 | 5.32 | 8 | 0 | 3.06 | 0 | 2.63 | 0 | 0.314 ± 0.44 | 0 | 0 | 0 | 0 | 0.0103 | 0 | 21.7 | 41.6 | 44.2 | 7.48 ± 0.46 | 30.7 | 9.8 | 28.8 | 8.16 | 11.3 ± 7.2
6 | CCN(CC)CCCC(C)Nc1c2ccc(Cl)cc2nc2ccc(OC)cc12 (configuration not stated) [Mepacrine aq] (max concentration tested 50000 nM) |  | 18.6 | 18 | 19.92 ± 0.17 | 18.9 |  |  | 20.5 | 20.5 ± 1.6 |  | 20.7 | 19.6 | 23.5 ± 4.6 | 15.8 | 14.7 |  | 95.9 | 95 | 98.51 ± 0.17 | 96.5 |  |  | 96.3 | 95.06 ± 0.61
7 | CN(C)C(=N)NC(=N)N [Metformin aq] (max concentration tested 100000 nM) |  | 0 | 0 | 0 | 0 |  |  | 0 | 0 |  | 0 | 0 | 0.0766 ± 0.11 | 0 | 0 |  | -13.1 | -15.5 | 6.36 ± 5.3 | 5.16 |  |  | 7.41 | 1.42 ± 6.1
8 | CCNC(=O)c1noc(-c2cc(C(C)C)c(O)cc2O)c1-c1ccc(CN2CCOCC2)cc1 [NVP-AUY922] (max concentration tested 1000 nM) |  | 21.6 | 22.6 | 20.5 ± 1.9 | 18.3 |  |  | 19.4 | 19.7 ± 3.3 |  | 19.6 | 20.4 | 20.6 ± 3.5 | 11.4 | 8.57 |  | 98.2 | 97.1 | 97.933 ± 0.086 | 92.2 |  |  | 98.2 | 98 ± 1.7
9 | Cc1ccc([N+](=O)[O-])cc1S(=O)(=O)N(C)/N=C/c1cnc2ccc(Br)cn12 [PIK-75] (max concentration tested 10000 nM) |  | 19.7 | 21.1 | 17.9 ± 1.9 | 22.3 |  |  | 17.7 | 21.2 ± 0.91 |  | 7.46 | 9.74 | 8.99 ± 6.5 | 14.6 | 5.5 |  | 91.1 | 95.4 | 97.021 ± 0.018 | 102 |  |  | 89.1 | 101.9 ± 0.78
10 | CCCCCCCCCCCCCCCCCCOP(=O)([O-])OC1CC[N+](C)(C)CC1 [Perifosine aq/PBS] (max concentration tested 2500 nM) |  | 0 | 0 | 0 | 1.96 |  |  | 1.66 | 0.0036 ± 0.0051 |  | 0 | 0 | 0 | 0.96 | 0.404 |  | 9.06 | 7.97 | 1.67 ± 4.5 | 32.7 |  |  | 23.6 | 9.85 ± 1.6
11 | c1cc(CN2CCCNCCNCCCNCC2)ccc1CN1CCCNCCNCCCNCC1 [Plerixafor aq] (max concentration tested 10000 nM) |  | 0 | 0 | 0 | 0 |  |  | 0 | 0 |  | 0 | 2.79 | 5.26 ± 3 | 0.908 | 0 |  | -10.1 | -6.48 | -14.1 ± 20 | 3.99 |  |  | 4.25 | -4.54 ± 3.1
12 | COCC1(CO)C(=O)C2CCN1CC2 (configuration not stated) [Prima-1 Met] (max concentration tested 10000 nM) |  | 1.87 | 2.14 | 2.75 ± 3.9 | 0.507 |  |  | 0 | 1.58 ± 1.1 |  | 0 | 0 | 7.59 ± 11 | 0 | 0 |  | 26.3 | 32.4 | 6.31 ± 9.8 | 14.6 |  |  | 8.31 | 19.1 ± 8.4
13 | N[C@@H](CSC(c1ccccc1)(c1ccccc1)c1ccccc1)C(=O)O [S-trityl-L-cysteine] (max concentration tested 40000 nM) |  | 0.233 | 0 | 0 | 0.0666 |  |  | 0 | 0.0379 ± 0.054 |  | 0 | 0 | 0 | 0 | 0 |  | 14.8 | -1.33 | 3.83 ± 4.3 | 13 |  |  | 7.25 | 8.17 ± 9.1
14 | Cn1nnc2c(C(N)=O)ncn2c1=O [Temozolomide] (max concentration tested 10000 nM) |  | 0 | 0 | 0.17 ± 0.24 | 0 |  |  | 0.0241 | 0 |  | 0 | 0 | 0 | 0 | 0 |  | 8.86 | 2.06 | 9.8 ± 9.4 | 8.32 |  |  | 11.9 | 2.61 ± 0.65
15 | Oc1ncc(N(CCCl)CCCl)c(O)n1 [Uracil mustard] (max concentration tested 10000 nM) |  | 0 | 0 | 0 | 0 |  |  | 0 | 0 |  | 0 | 0 | 0 | 0 | 0 |  | 5.98 | 5.29 | -1.65 ± 8.9 | 1.52 |  |  | 10.8 | -1.32 ± 0.75
16 | CCCC(CCC)C(=O)O [Valproic acid aq] (max concentration tested 1000000 nM) |  | 4.34 | 4.4 | 1.59 ± 0.097 | 1.5 |  |  | 3.83 | 2.44 ± 0.31 |  | 0 | 0 | 0 | 0 | 0.307 |  | 68.2 | 59 | 20.7 ± 3.2 | 28.3 |  |  | 44.4 | 31.3 ± 17

— the supplement of paper PMC5579334
